Common to all, as to assay type: binding
The target of assay [1] is T1, human adenosine A1 receptor (hA1R) (Homo sapiens, UniProt P30542).
T1 construct: Steve Hill (University of Nottingham, UK); host or cells: CHO cells stably expressing hA1R; membrane preparation
T1 sequence (P30542 1-326): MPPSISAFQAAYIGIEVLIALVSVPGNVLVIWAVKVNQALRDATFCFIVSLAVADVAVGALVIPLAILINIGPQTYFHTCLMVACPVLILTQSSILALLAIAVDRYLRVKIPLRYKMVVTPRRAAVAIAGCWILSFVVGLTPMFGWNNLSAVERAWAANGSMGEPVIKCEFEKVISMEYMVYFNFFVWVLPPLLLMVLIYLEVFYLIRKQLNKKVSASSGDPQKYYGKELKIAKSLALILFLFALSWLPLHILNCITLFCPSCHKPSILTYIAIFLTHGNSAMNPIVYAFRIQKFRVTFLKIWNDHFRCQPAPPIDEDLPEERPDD
The assay is described as follows: Competition association with [3H]-DPCPX, filtration assay. As to conditions: 28 °C, 1 mM GTP present for LUF5834, CCPA, NECA; for Filtration assay RT: 1/k off. As to the method:
(§1) The binding kinetics of unlabeled ligands was quantified using the competition association assay based on the theoretical framework by Motulsky and Mahan.
The competition association assay was initiated by adding membrane aliquots (5 μg per well) at different time points for a total of 2 h in the absence or presence of competing ligand.

Assay [2] concerns the target T1, human adenosine A1 receptor (hA1R). Briefly: Competition association with [3H]-DPCPX, SPA technology. As to conditions: 28 °C, 1 mM GTP present for LUF5834, CCPA, NECA; for SPA RT: 1/k off. The method, then: as §1
The membrane-bead mixture was prepared as described under “Radioligand displacement experiments.” Once the membrane-bead mixture was added to the wells of an Isoplate-96 Microplate, measurements of radioligand bound to the receptor were started immediately and continued every 30 s for 2 h, using the 2450 MicroBeta^2 Plate Counter.

Assay [3] shares this target. The assay is described as follows: Radioligand displacement of [3H]-DPCPX, filtration assay. As to conditions: CHO-hA1R membranes, one-state model. In general terms: In a radioligand displacement assay an active substance lowers the binding of a labelled ligand.
Procedure: (§2) Non-specific binding (NSB) was determined in the presence of 100 μM CPA. Each condition was measured in duplicate, and at least three individual experiments were performed.
Membrane aliquots containing 5 μg protein were incubated together with the radioligand and competing ligands in a total volume of 100 μL assay buffer in a 96-well plate. After 1 h incubation at room temperature, the incubation was terminated by rapid vacuum filtration to separate the bound and free radioligand through 96-well GF/B filter plates using a PerkinElmer Filtermate-harvester (Perkin Elmer, Groningen, the Netherlands). Filters were subsequently washed three times with ice-cold wash buffer (50 mM Tris-HCl [pH 7.4], supplemented with 5 mM MgCl2). After 30 min of dehydration of the filter plate at 50 °C, the filter-bound radioactivity was determined by scintillation spectrometry using the 2450 MicroBeta^2 Plate Counter. The binding values were recorded in both counts per minute (CPM) and disintegrations per minute (DPM).
For assay [4] the target is unchanged. The assay is described as follows: Radioligand displacement of [3H]-DPCPX, SPA technology. As to conditions: CHO-hA1R membranes, one-state model.
Procedure: as §2
A mixture of 5 μg protein membrane and 1 mg SPA bead was pre-coupled in a shaker (Vibrax VXR, IKA) in a volume of 50 μL of assay buffer at room temperature for 30 min. Then, together with the radioligand and competing ligands, the membrane-bead mixture was dispatched in an Isoplate-96 Microplate (Perkin Elmer, Groningen, the Netherlands), in a final reaction volume of 100 μL. The plate was incubated for 1 h inside the counting chamber of a 2450 MicroBeta^2 Plate Counter (Perkin Elmer, Groningen, the Netherlands) at the ambient temperature of 28 °C. The binding values were recorded in corrected counts per minute (CCPM).

The values that follow come from article PMC4749533, “Scintillation proximity assay (SPA) as a new approach to determine a ligand’s kinetic profile. A case in point for the adenosine A1 receptor” (Purinergic Signalling, 2015).

Consider `OC[C@H]1O[C@@H](n2cnc3c(NC4CCCC4)nc(Cl)nc32)[C@H](O)[C@@H]1O` [CCPA, 2-chloro-N^6-cyclopentyladenosine], for which the “Filtration assay RT” value in assay [1] was determined as 0.68 ± 0.01 min. Besides, in assay [2], the “SPA RT” value came to 1.4 ± 0.1 min.

For `CCCn1c(=O)c2[nH]c(C3CCCC3)nc2n(CCC)c1=O` [DPCPX, 1,3-Dipropyl-8-cyclopentyl-xanthine], the “Filtration assay RT” value in assay [1] was determined as 3.7 ± 0.4 min. Moreover, the “SPA RT” value in assay [2] was 2.0 ± 0.1 min.

As for `CCCn1c(=O)c2[nH]c(C3CCCC3)nc2n(CCCOC(=O)c2ccc(S(=O)(=O)F)cc2)c1=O` [FSCPX, 8-cyclopentyl-3-N-[3-((3-(4-fluorosulphonyl)benzoyl)-oxy)-propyl]-1-N-propyl-xanthine], in assay [1], the “Filtration assay RT” value is recorded as 167 ± 56 min. Moreover, the “SPA RT” value in assay [2] came to 156 ± 31 min.

A word on the Ki: it is a dissociation constant, usually derived from enzyme kinetics or from competition with a known ligand. A higher Ki goes with lower affinity. `N#Cc1c(N)nc(SCc2ncc[nH]2)c(C#N)c1-c1ccc(O)cc1` [LUF5834]: the “Filtration assay RT” value in assay [1] came to 4.4 ± 0.5 min. Further, in assay [1] ([…] [3H]-DPCPX), the “Filtration assay k off (k4)” value worked out at 0.00383 ± 0.0005 s⁻¹ and the “Filtration assay k on (k3)” value was found to be 1.03e+06 ± 100000 M⁻¹ s⁻¹. In assay [1] (k off/k on, read-out: Filtration assay Kinetic K D), the Kd came out at 3.7 ± 0.5 nM. The same molecule returned an inhibition constant (Ki) in assay [3] of 4.3 ± 0.6 nM. Also, in assay [2], the “SPA RT” value was 2.0 ± 0.1 min. Besides, in assay [2] ([…] [3H]-DPCPX), the “SPA k off (k4)” value turned out to be 0.00833 ± 0.00083 s⁻¹ and the “SPA k on (k3)” value came to 2.17e+06 ± 830000 M⁻¹ s⁻¹. For the same molecule, in assay [2] (k off/k on, read-out: SPA Kinetic K D), the Kd is 3.9 ± 1.5 nM. Further, in assay [4], the affinity, expressed as Ki, was 6.2 ± 0.5 nM.
